# Reference: patent US20210332024A1, “MODULATORS OF PIN1 ACTIVITY AND USES THEREOF” (Yeda Research and Development Co. Ltd., priority 2019, published 2021)
# Columns and labels:
# GST-Pin1 = GST-Pin1 (Homo sapiens, UniProt Q13526); test: Fluorescence polarization (FP) competition assay; type: binding; conditions: FP assay, competition with fluorescein-labeled peptide, 250 nM GST-Pin1; read-out: Ki (apparent)
# Experimental: Binding affinity to Pin1 was determined using a fluorescence polarization assay to assess competition with an N-terminal fluorescein-labeled peptide (Bth-D-phosThr-Pip-Nal), which was obtained from JPT Peptide Technologies and Proteintech Group. The indicated concentrations of candidate compound were pre-incubated for 12 hours at 4° C. with a solution containing 250 nM glutathione S-transferase (GST)-Pin1, 5 nM of fluorescein-labeled peptide probe, 10 μg/ml bovine serum albumin, 0.01% Tween-20 and 1 mM DTT (dithiothreitol) in a buffer of 10 mM HEPES, 10 mM NaCl and 1% glycerol (pH 7.4). Measurements of FP were performed in black 384-well plates (Corning) using an EnVision™ reader. Apparent Ki values (under the tested conditions) obtained from the FP assay results were derived from the Kenakin Ki equation:
# Kenakin Ki=(Lb)(EC50)(Kd)/(Lo)(Ro)+Lb(Ro−Lo+Lb−Kd)
# Sittampalam G. S. et al., Eli Lilly & Company and the National Center for Advancing Translational Sciences, 2004].
# Covalent labeling of Pin1 was confirmed to translate into enzyme inhibition via a fluorescence polarization (FP) competition assay using a FITC-labeled substrate mimetic peptide inhibitor, as well as a chymotrypsin-coupled PPIase assay, using procedures described in Wei et al. [Nat Med 2015, 21:457-466].
# The fluorescent polarization assay was performed in a dose-dependent and time-dependent manner, in order to further characterize the kinetic parameters of Pin1-3 binding to Pin1.
# [1] = Thiol reactivity assay (DTNB); type: physicochemical; conditions: 200 μM compound, pH 7.4, 37° C.
# Experimental: 50 μM DTNB (dithionitrobenzoic acid) was incubated with 200 μM TCEP (tris(2-carboxytehyl)phosphine) in 20 mM sodium phosphate buffer (pH 7.4) with 150 mM NaCl, for 5 minutes at room temperature, in order to obtain TNB^2− (thionitrobenzoate dianion). 200 μM compounds were subsequently added to the TNB^2−, followed by immediate UV absorbance measurement at 412 nm (at 37° C.). The UV absorbance was acquired every 15 minutes for 7 hours. The assay was performed in a 384-well plate using a Spark™ 10M plate reader (Tecan). Background absorbance of compounds was subtracted by measuring the absorbance at 412 nm of each compound under the same conditions without DTNB. Compounds were measured in triplicates. The data was fitted to a second order reaction equation such that the rate constant k is the slope of ln([A][B0]/[B][A0]), where [A0] and [B0] are the initial concentrations of the compound (200 μM) and TNB^2− (100 μM) respectively, and [A] and [B] are the remaining concentrations as a function of time, as determined from the spectrometric measurement. Linear regression using Prism® software was performed to fit the rate against the first four hours of measurements.
# In order to estimate the influence of the various lipophilic moieties on “warhead” reactivity [Flanagan et al., J Med Chem 2014, 57:10072-10079; Lonsdale et al., J Chem Inf Model 2017, 57:3124-3137; Dahal et al., Medchemcomm 2016, 7:864-872], the thiol reactivity of the top ten binders of the second and third generation was assessed using a high-throughput assay previously applied to the entire fragment library, as described in Resnick et al. [J Am Chem Soc 2019, 141:8951-8968]. In brief, the second-order rate constant was evaluated for a model thiol, which reflects trends in general reactivity towards thiol groups.
# MDA-MB-231 cells = test: Cell viability assay (CellTiter-Glo); type: cell-based; conditions: cell viability assay with MDA-MB-231 cells
# Experimental: MDA-MB-231 cells grew in DMEM medium supplemented with 10% FCS (fetal calf serum), 1% PS (penicillin-streptomycin) and 1% L-glutamine (all from Biological Industries). Exclusion of mycoplasma contamination was monitored and conducted by test with MycoAlert™ kit (Lonza). Cells were trypsinized and counted, and 1000 cells/well were plated in 50 μl of growth medium into 384-well white TC plates (Greiner) using Multidrop™ 384 (Thermo Scientific) Washer Dispenser II. The number of viable cells was monitored using CellTiter-Glo® Luminescent kit (Promega) in accordance with the manufacturer's protocol. Luminescence was measured using luminescence module of PHERAstar™ FS plate reader (BMG Labtech). Data analysis was performed using GeneData 12 analytic software. Assay ready plate preparation: Compounds transferred into black microplates (Greiner 784900) using Labcyte Echo® acoustic dispensing technology. Assay ready plates were then sealed with heat seals. If not used immediately, plates were frozen at −20° C. and held in polypropylene boxes with silica-gel desiccant.
# Exemplary Pin1-binding compounds were also tested for non-selective cytotoxicity in a viability assay against IMR90 lung fibroblasts.
# catalytic domain of Pin1 = biological target: T1, catalytic domain of Pin1 (Homo sapiens, UniProt Q13526); test: Intact protein LC/MS labeling of Pin1; type: binding
# T1 construct: The purified catalytic domain of Pin1 was incubated with the fragment library
# T1 sequence (Q13526 52-163 limits assumed): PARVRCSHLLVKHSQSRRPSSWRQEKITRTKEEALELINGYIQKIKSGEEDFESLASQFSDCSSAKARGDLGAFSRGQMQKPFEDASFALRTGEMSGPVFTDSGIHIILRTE
# Experimental: 993 compounds were transferred to a 384-well plate working copy by combining 0.5 μl of 20 mM stock solution of four or five compounds per well. The catalytic domain of Pin1 (2 μM) in 20 mM Tris, 75 mM NaCl, pH 7.5 was incubated with 200 μM for each compound and moderately shaken for 24 hours at 4° C. The reaction was stopped by the addition of formic acid to 0.4% (v/v) final concentration.
# Liquid chromatography/mass spectroscopy runs were performed on an Acquity™ UPLC® H-class system (Waters) in positive ion mode using electrospray ionization (ESI). UPLC separation was performed on a C4 column (300 Å, 1.7 μM, […]). The column was held at 40° C., and the autosampler at 10° C. Mobile solution A was 0.1% formic acid in water and mobile phase B was 0.1% formic acid in acetonitrile. Run flow was 0.4 ml/minute; and a gradient of 20% B for 2 minutes, increasing linearly to 60% B for 3 minutes, holding at 60% B for 1.5 minutes, changing to 0% B in 0.1 minute and holding at 0% for 1.4 minutes, was used. Desolvation temperature was 500° C. with a flow rate of 1000 liters/hour. The capillary voltage was 0.69 kV and cone voltage 46 V. Raw data was processed using OpenLynx™ software and deconvoluted using the MaxEnt tool. Labeling assignment was performed as described in Resnick et al. [J Am Chem Soc 2019, 141:8951-8968].
# For the screening 2 μl of each of the 448 click products as 50 μM DMSO stocks were transferred into a 384-well plate working plate. 48 μl of catalytic domain of Pin1 (2 μM) in 20 mM Tris (pH 7.5) with 75 mM NaCl were added and moderately shaken and incubated for 15 minutes at room temperature. The reaction was stopped by the addition of formic acid to 0.4% (v/v) final concentration (20 μl). The mixtures were analyzed by liquid chromatography/mass spectroscopy analogously to the electrophile library incubations described herein. Hits were retrospectively analyzed by liquid chromatography/mass spectroscopy (LC-MS) to ensure reaction completion.
# For each measured well, processed peaks were searched to match the mass of unlabeled protein or common small adducts of the unlabeled protein, which were found in the control sample or labeled protein. Labeling percentage for a compound was determined as the labeling of a specific compound divided by the overall detected protein species. Peaks whose mass could not be assigned were discarded from the overall labeling calculation. Data was analyzed using a python script for processing the MaxEnt-deconvoluted spectra. Peaks were normalized from ion counts to percentages, where the highest peak is defined as 100%. The unlabeled protein mass is deduced from a reference well that contains just the protein.
# The purified catalytic domain of Pin1 was incubated with the fragment library (2 μM protein, 200 μM compound; 24 hours at 4° C.), followed by intact protein liquid chromatography/mass-spectrometry (LC/MS) to identify and quantify compound labeling. FIG. 1 depicts an example of a compound identified in this manner.
# Based on the docking predictions, a total of 26 compounds that featured a range of small or bulky aliphatic, arylic, biphenylic or heterocyclic side-chains (structures depicted in FIG. 5), were synthesized or purchased. In order to identify potent binders, the irreversible labeling efficiency of these second-generation compounds was assessed alongside the original screening hits under more stringent conditions, with a 1:1 ratio of protein to compound (2 μM compound; 1 hour at room temperature).
# For further optimization of the lipophilic moiety, an alkyne side chain-bearing analog was prepared, which was derivatized with 448 different azides using copper-catalyzed azide-alkyne cycloaddition (CuAAC).
# [2] = 2 μM Pin1 with 2 μM test compound for 1 hour at room temperature
# GST-Pin1, sequence (Q13526 whole entry): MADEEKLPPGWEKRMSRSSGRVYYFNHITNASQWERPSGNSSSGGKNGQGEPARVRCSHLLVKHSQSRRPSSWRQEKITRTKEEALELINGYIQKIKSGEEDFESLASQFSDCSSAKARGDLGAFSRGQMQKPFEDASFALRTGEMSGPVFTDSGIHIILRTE
Structure (SMILES),Ki (GST-Pin1) [nM],Reactivity Log k [1],Reactivity k [1] [M⁻¹ s⁻¹],EC50 (MDA-MB-231 cells) [nM],Labeling [%] (catalytic domain of Pin1; [2]),EC50 (MDA-MB-231 cells; Homo sapiens) [nM],Labeling [%] (catalytic domain of Pin1; 2 μM Pin1 with 2 μM test compound for 15 minutes at room temperature)
"O=C1C=CC(=O)c2c(O)cccc21 [Juglone, 5-hydroxy-1,4-naphthalenedione, reference compound]",1750,–,–,–,–,–,–
O=C(CCl)N(C1CCS(=O)(=O)C1)C(Cc1ccccc1)c1ccccc1 (stereo not shown) [Pin1-2-1],58,−6.96,1.09e-07,2800,50,–,–
"O=C(CCl)N(CC1CCCCC1)C1CCS(=O)(=O)C1 (stereo not shown) [Pin1-2-3, 2-chloro-N-(sulfolan-3-yl)-N-(cyclohexylmethyl)acetamide]",46,−6.82,1.53e-07,–,–,7500,42
Cc1cccc(CN(C(=O)CCl)C2CCS(=O)(=O)C2)c1 (stereo not shown) [Pin1-2-6],194,−6.80,1.58e-07,5600,30,–,–
O=C(CCl)N(Cc1ccccc1OCc1ccccc1)C1CCS(=O)(=O)C1 (stereo not shown) [Pin1-2-7],39,−6.99,1.02e-07,6100,37,–,–
O=C(CCl)N(Cc1cccc(Cl)c1)C1CCS(=O)(=O)C1 (stereo not shown) [Pin1-2-11],–,−6.94,1.15e-07,–,19,–,–
O=C(CCl)N(Cc1ccccc1-c1cccc(C(F)(F)F)c1)C1CCS(=O)(=O)C1 (stereo not shown) [Pin1-3-8],–,−7.09,8.22e-08,–,23,–,–
O=C(CCl)N(CC1CC1)C1CCS(=O)(=O)C1 (stereo not shown) [Pin1-3-13],121,−6.82,1.5e-07,–,–,–,–
"CC(C)CN(C(=O)CCl)C1CCS(=O)(=O)C1 (stereo not shown) [Pin1-3-15, 2-chloro-N-(sulfolan-3-yl)-N-isobutylacetamide]",–,−7.11,7.77e-08,–,21,–,–
CCCN(C(=O)CCl)C1CCS(=O)(=O)C1 (stereo not shown) [Pin1-028],–,−6.80,1.59e-07,–,16,–,–
CCC(C)N(C(=O)CCl)C1CCS(=O)(=O)C1 (stereo not shown) [Pin1-053],–,−6.91,1.24e-07,–,28,–,–
O=C(CCl)N(Cc1ccco1)C1CCS(=O)(=O)C1 (stereo not shown) [Pin1-128],–,−6.83,1.47e-07,–,25,–,–
COCCN(C(=O)CCl)C1CCS(=O)(=O)C1 (stereo not shown) [Pin1-324],–,−6.80,1.59e-07,–,12,–,–
O=C(CCl)N(Cc1cccs1)C1CCS(=O)(=O)C1 (stereo not shown) [Pin1-433],–,−6.67,2.13e-07,8900,45,–,–
CN(C)CCN(C(=O)CCl)C1CCS(=O)(=O)C1 (stereo not shown) [Pin1-707],–,−8.93,1.17e-09,–,0,–,–
O=C(CCl)N(CC1CCCO1)C1CCS(=O)(=O)C1 (stereo not shown) [Pin1-838],–,−6.85,1.41e-07,–,16,–,–
